Assay results taken from patent US5284853A, “Angiotensin II receptor blocking 2,3,6 substituted quinazolinones” (American Cyanamid Company, priority 1993, dated 1994).
“And” between values parts separate entries of the source, which are not always exact repeats. Identical values can stand only once.

Experiments:
[1] = molecular target: T1, Angiotensin II Receptor (Bos taurus, UniProt P25104); assay: Receptor binding assay: competition of [^125 I](Sar^1,Ile^8)AngII binding to beef adrenal cortex microsomal membranes; details: 60 min, room temperature, pH 7.4
T1 construct: The brownish tissue forming the adrenal cortex is scraped off and finely minced with scissors before homogenization; tissue local slaughter house (Maxwell-Cohen); host or cells: beef adrenal cortex, microsomal membranes (100,000×g pellet)
T1 sequence (P25104 1-359): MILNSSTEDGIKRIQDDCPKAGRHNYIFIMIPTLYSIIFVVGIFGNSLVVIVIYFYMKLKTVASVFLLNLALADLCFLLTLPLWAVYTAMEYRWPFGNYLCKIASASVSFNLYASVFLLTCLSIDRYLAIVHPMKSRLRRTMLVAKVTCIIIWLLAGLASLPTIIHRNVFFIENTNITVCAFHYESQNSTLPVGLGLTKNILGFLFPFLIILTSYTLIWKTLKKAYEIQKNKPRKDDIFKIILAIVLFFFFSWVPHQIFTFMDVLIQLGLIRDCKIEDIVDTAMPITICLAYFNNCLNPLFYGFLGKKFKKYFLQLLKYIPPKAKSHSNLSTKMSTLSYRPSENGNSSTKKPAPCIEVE

[2] = system: Angiotensin II (AII) vasopressor response; assay: AII Challenge: antagonism of the angiotensin II vasopressor response in conscious SHR; assay type: in vivo, Spontaneously hypertensive rats (Male okamoto-Aoki SHR); details: 15 mg/kg I.V.; for Average Change / Inhibition: n = 2; for Change / Control Before AII / Response After AII: per rat
[3] = AII 0.05 mcg/kg IV, 30 min post dose
[4] = AII 0.05 mcg/kg IV, 60 min post dose
[5] = AII 0.05 mcg/kg IV, 90 min post dose
[6] = AII 0.05 mcg/kg IV, 120 min post dose
[7] = AII 0.05 mcg/kg IV, 180 min post dose
[8] = AII 0.1 mcg/kg IV, 30 min post dose
[9] = AII 0.1 mcg/kg IV, 60 min post dose
[10] = AII 0.1 mcg/kg IV, 90 min post dose
[11] = AII 0.1 mcg/kg IV, 120 min post dose
[12] = AII 0.1 mcg/kg IV, 180 min post dose

## CCCCc1nc2ccc(C3(C)CC(C(=O)OCC)=NO3)cc2c(=O)n1Cc1ccc(-c2ccccc2-c2nnn[nH]2)cc1 (stereo not drawn) [Example 30]
[1]
  IC50: 200 nM
[2]; [3]
  Average Change: 10 mmhg
  Inhibition: 78%
  Change: 15 mmhg and 5 mmhg
  Control Before AII: 175 mmhg and 215 mmhg
  Response After AII: 190 mmhg and 220 mmhg
[2]; [4]
  Average Change: 9 mmhg
  Inhibition: 80%
  Change: 0 mmhg and 18 mmhg
  Control Before AII: 190 mmhg and 207 mmhg
  Response After AII: 190 mmhg and 225 mmhg
[2]; [5]
  Average Change: 20 mmhg
  Inhibition: 57%
  Change: 20 mmhg
  Control Before AII: 170 mmhg and 210 mmhg
  Response After AII: 190 mmhg and 230 mmhg
[2]; [6]
  Average Change: 35 mmhg
  Inhibition: 24%
  Change: 40 mmhg and 30 mmhg
  Control Before AII: 165 mmhg and 200 mmhg
  Response After AII: 205 mmhg and 230 mmhg
[2]; [7]
  Average Change: 5 mmhg
  Inhibition: 89%
  Change: 5 mmhg
  Control Before AII: 200 mmhg and 240 mmhg
  Response After AII: 205 mmhg and 245 mmhg
[2]; [8]
  Average Change: 17 mmhg
  Inhibition: 58%
  Change: 14 mmhg and 20 mmhg
  Control Before AII: 170 mmhg and 210 mmhg
  Response After AII: 184 mmhg and 230 mmhg
[2]; [9]
  Average Change: 20 mmhg
  Inhibition: 50%
  Change: 15 mmhg and 25 mmhg
  Control Before AII: 185 mmhg and 200 mmhg
  Response After AII: 200 mmhg and 225 mmhg
[2]; [10]
  Average Change: 32.5 mmhg
  Inhibition: 19%
  Change: 35 mmhg and 30 mmhg
  Control Before AII: 165 mmhg and 205 mmhg
  Response After AII: 200 mmhg and 235 mmhg
[2]; [11]
  Average Change: 29 mmhg
  Inhibition: 28%
  Change: 25 mmhg and 33 mmhg
  Control Before AII: 175 mmhg and 200 mmhg
  Response After AII: 200 mmhg and 233 mmhg
[2]; [12]
  Average Change: 15 mmhg
  Inhibition: 63%
  Change: 25 mmhg and 5 mmhg
  Control Before AII: 190 mmhg and 240 mmhg
  Response After AII: 215 mmhg and 245 mmhg
